Drug sensitivity score data for 31 compounds are collected here from the supplement of paper PMC11616607.

In one experiment the test system is OV90. Description: drug sensitivity score (DSS) from 5-point dose-response viability curve (DSS (area-under-curve based score)); higher = more sensitive (stronger growth inhibition or killing); extreme values may be limits of the assay. Particulars: exposure time: 72 h; concentration range: 5 concentrations over 10,000-fold range. In short, it runs like this:
(§1)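 Ovarian cancer and normal ovarian cell lines were tested in 384-well plates, with drugs dispensed acoustically (Echo 550) in DMSO or water at five concentrations covering a 10,000-fold range. After 1,500 cells per well were added, plates were incubated for 3 days at 37°C and 5% CO2, and viability was read by CellTiter-Glo luminescence on a PHERAstar FS. Breeze software gave a drug sensitivity score for each cell line and drug, where a higher score means greater sensitivity. A value of zero means no response.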
`CCc1cnn2c(NCc3ccc[n+]([O-])c3)cc(N3CCCC[C@H]3CCO)nc12` [Dinaciclib] showed a drug sensitivity score of 21.2.
The compound `O=C(O)c1ccc(CN2CCC(CN[C@@H]3C[C@H]3c3ccccc3)CC2)cc1` registered a drug sensitivity score of 0.
Still for that read-out and setting: the same measure for `CN1CCN(c2ccc(C(=O)Nc3n[nH]c4ccc(Cc5cc(F)cc(F)c5)cc34)c(NC3CCOCC3)c2)CC1` [Entrectinib]: 0; for `O=c1[nH]c(=O)n([C@H]2C[C@H](O)[C@@H](CO)O2)cc1C(F)(F)F` [Trifluridine]: 2.1; for `CCOC(=O)C1=CCCC[C@H]1S(=O)(=O)Nc1ccc(F)cc1Cl` [Resatorvid]: 0.
On the same count and under the same terms, next, `CN(Cc1cnc2nc(N)nc(N)c2n1)c1ccc(C(=O)N[C@@H](CCC(=O)O)C(=O)O)cc1` [Methotrexate]: 10.6.
The compound `CN1CCN(C2CCC(n3cc(-c4ccc(Oc5ccccc5)cc4)c4c(N)ncnc43)CC2)CC1` (configuration not stated) had a drug sensitivity score of 10.3.
As to `COc1cc2nccc(Oc3ccc(NC(=O)Nc4cc(C)on4)c(Cl)c3)c2cc1OC` [Tivozanib], the drug sensitivity score stood at 5.6.
`C[C@H]1C[C@@H](n2c(Nc3ccc(OC(F)(F)F)cc3)nc3cc(CCC(=O)O)ccc32)CC(C)(C)C1` came in with a drug sensitivity score of 0.
Regarding `CN1CCN(C2CCN(C(=O)Nc3cc(Oc4ccc(NC(=O)C5(C(=O)Nc6ccc(F)cc6)CC5)c(F)c4)ccn3)CC2)CC1` [Golvatinib], the drug sensitivity score came out at 1.4.
The same measure, in the same setting: the same measure for `Cc1cc([C@@H](C)Nc2ccccc2C(=O)O)c2nc(N3CCOCC3)cc(=O)n2c1` [AZD-6482]: 0.
Still for that read-out and setting: next, `CC1=C(/C=C/C(C)=C/C=C/C(C)=C/C(=O)O)C(C)(C)CCC1` [Tretinoin]: 0; `CC[C@H](Nc1ncnc2[nH]cnc12)c1nc2cccc(F)c2c(=O)n1-c1ccccc1` [Idelalisib]: 0; `O=c1[nH]cc(F)c(=O)[nH]1` [Fluorouracil]: 2.3.
On to `O=C(NOCCO)c1ccc2cncn2c1Nc1ccc(I)cc1F` [GDC-0623], for which the drug sensitivity score was 16.3.
On the same count and under the same terms, next, `CC(C)[C@H](C(=O)Nc1ccc(C(=O)NO)cc1)c1ccccc1` [AR-42]: 12.8.

The test system of the next experiment is OVCAR4. Described as above. Conditions: exposure time: 72 h; concentration range: 5 concentrations over 10,000-fold range. In short, it runs like this:
as §1
As to `COc1c(C)cnc(Cn2cnc3c(Cl)nc(N)nc32)c1C` [BIIB021], the drug sensitivity score worked out at 9.9.
Still for that read-out and setting: next, `CO[C@@H]1[C@H](N(C)C(=O)c2ccccc2)C[C@H]2O[C@]1(C)n1c3ccccc3c3c4c(c5c6ccccc6n2c5c31)C(=O)NC4` [Midostaurin]: 8.5.
Still for that read-out and setting: the same measure for `COc1ccc(S(=O)(=O)Nc2cccnc2Nc2ccc(O)cc2)cc1` [ABT-751]: 5.
In turn, `COc1cc2ncnc(Nc3cccc(Cl)c3F)c2cc1OC(=O)N1CCN(C)C[C@H]1C` [AZD3759] gave a drug sensitivity score of 0.
Same read-out and setting: next, `C[C@H]1CN(C2COC2)CCN1c1ccc(Nc2cc(-c3ccnc(N4CCn5c(cc6c5CC(C)(C)C6)C4=O)c3CO)cn(C)c2=O)nc1` [GDC-0853]: 0; `CCCOc1ccn2c(C(C)=O)cc(-c3ccccc3S(C)(=O)=O)c2c1` [GSK2801]: 0; `CC(C)N(CCCNC(=O)Nc1ccc(C(C)(C)C)cc1)C[C@H]1O[C@@H](n2cc(Br)c3c(N)ncnc32)[C@H](O)[C@@H]1O` [SGC0946]: 0.1.
Still for that read-out and setting: next, `Cc1ccc(-n2nc(C(C)(C)C)cc2NC(=O)Nc2ccc(OCCN3CCOCC3)c3ccccc23)cc1` [Doramapimod]: 2.4; `CO[C@@H](C)Cn1c(=O)n(C)c2cnc3ccc(-c4cncc(C(C)(C)O)c4)cc3c21`: 9.8.
The same measure, in the same setting: next, `C[C@@H]1C[C@H]2[C@@H]3CCC4=CC(=O)C=C[C@]4(C)[C@@]3(F)[C@@H](O)C[C@]2(C)[C@@]1(O)C(=O)CO` [Dexamethasone]: 0; `CN1CCN(c2nc(C3=C(c4c[nH]c5ccccc45)C(=O)NC3=O)c3ccccc3n2)CC1` [Sotrastaurin]: 0; `Cc1cc(F)c(C(=O)Nc2cccc(-c3nncn3C(C)C)n2)cc1-n1cnc(C2CC2)c1` [Selonsertib]: 0.
On to `O=C(/C=C\n1cnc(-c2cc(C(F)(F)F)cc(C(F)(F)F)c2)n1)NNc1ccccn1` [Verdinexor], for which the drug sensitivity score was 5.4.
For `Cn1nnc2c(C(N)=O)ncn2c1=O` [Temozolomide], the drug sensitivity score was determined as 0.
Same read-out and setting: next, `NC(=O)N1CCC(CC(=O)N2CCC([C@H]3c4ncc(Br)cc4CCc4cc(Cl)cc(Br)c43)CC2)CC1` [Lonafarnib]: 9.1; `CCc1cnn2c(NCc3ccc[n+]([O-])c3)cc(N3CCCC[C@H]3CCO)nc12` [Dinaciclib]: 15.7.
The same measure, in the same setting: next, `O=C(O)c1ccc(CN2CCC(CN[C@@H]3C[C@H]3c3ccccc3)CC2)cc1`: 0.3; `CN1CCN(c2ccc(C(=O)Nc3n[nH]c4ccc(Cc5cc(F)cc(F)c5)cc34)c(NC3CCOCC3)c2)CC1` [Entrectinib]: 1.
`O=c1[nH]c(=O)n([C@H]2C[C@H](O)[C@@H](CO)O2)cc1C(F)(F)F` [Trifluridine] showed a drug sensitivity score of 1.1.
Still for that read-out and setting: next, `CCOC(=O)C1=CCCC[C@H]1S(=O)(=O)Nc1ccc(F)cc1Cl` [Resatorvid]: 0.
`CN(Cc1cnc2nc(N)nc(N)c2n1)c1ccc(C(=O)N[C@@H](CCC(=O)O)C(=O)O)cc1` [Methotrexate] displayed a drug sensitivity score of 14.8.
On the same count and under the same terms, next, `CN1CCN(C2CCC(n3cc(-c4ccc(Oc5ccccc5)cc4)c4c(N)ncnc43)CC2)CC1` (configuration not stated): 7.6; `COc1cc2nccc(Oc3ccc(NC(=O)Nc4cc(C)on4)c(Cl)c3)c2cc1OC` [Tivozanib]: 2.3; `C[C@H]1C[C@@H](n2c(Nc3ccc(OC(F)(F)F)cc3)nc3cc(CCC(=O)O)ccc32)CC(C)(C)C1`: 0.
The same measure, in the same setting: the same measure for `CN1CCN(C2CCN(C(=O)Nc3cc(Oc4ccc(NC(=O)C5(C(=O)Nc6ccc(F)cc6)CC5)c(F)c4)ccn3)CC2)CC1` [Golvatinib]: 0; for `Cc1cc([C@@H](C)Nc2ccccc2C(=O)O)c2nc(N3CCOCC3)cc(=O)n2c1` [AZD-6482]: 1.6.
In the case of `CC1=C(/C=C/C(C)=C/C=C/C(C)=C/C(=O)O)C(C)(C)CCC1` [Tretinoin], the drug sensitivity score came to 0.
On the same count and under the same terms, the same measure for `CC[C@H](Nc1ncnc2[nH]cnc12)c1nc2cccc(F)c2c(=O)n1-c1ccccc1` [Idelalisib]: 2.3; for `O=c1[nH]cc(F)c(=O)[nH]1` [Fluorouracil]: 0; for `O=C(NOCCO)c1ccc2cncn2c1Nc1ccc(I)cc1F` [GDC-0623]: 6.3.
Regarding `CC(C)[C@H](C(=O)Nc1ccc(C(=O)NO)cc1)c1ccccc1` [AR-42], the drug sensitivity score amounted to 7.2.
